Counter-ions that a name gives are not always drawn.
Target: T1, PDEV (Homo sapiens, UniProt O76074)
T1 construct: PDEV was isolated from rabbit and human tissues according to the protocol described by Boolell et al; from tissue; host or cells: human tissue, homogenate supernatant fractionated on Mono Q
Experiment: In vitro determination of Ki for phosphodiesterase inhibitors
Format: biochemical
Details: human tissue; given as 'Ki ='
Procedure: The assays were adapted to a 96-well format. Phosphodiesterase was assayed in 5 mM MgCl2, 15 mM Tris HCl (pH 7.4), 0.5 mg/ml bovine serum albumin, 30 nM ^3H-cGMP and test compound at various concentrations. The amount of enzyme used for each reaction was such that less than 15% of the initial substrate was converted during the assay period. For all measurements, the test compound was dissolved and diluted in 100% DMSO (2% DMSO in assay). The total volume of the assay was 100 μl. The reaction mixture was incubated at 30° C. for 90 minutes. The reaction was stopped by boiling for 1 minute and then immediately cooled by transfer to an ice bath. To each well was then added 25 μl 1 mg/ml snake venom (Ophiophagus hannah) and the reaction mixture incubating at 30° C. for 10 minute. The reaction was stopped by the addition of 1 ml Bio-Rad AG1-X2 resin slurry (1:3). An aliquot of 200 μl was taken and counted by liquid scintillation.
(§1) The % inhibition of the maximum substrate conversion (by the enzyme in the absence of inhibitor) was calculated for each test compound concentration. Using GraphPad Prism's nonlinear regression analysis (sigmoidal dose response), the % inhibition vs log of the test compound concentration was plotted to determine the IC50. Under conditions where substrate concentration <<Km of the enzyme (Km=substrate concentration at which half of the maximal velocity of the enzyme is achieved), Ki is equivalent to the IC50 value.
(§2) Unless otherwise noted, PDEV inhibitory activities were measured using human tissue. The abbreviation “stereo” refers to the stereogenic configuration, the abbreviation “Rac” shall denote a racemic mixture.

Row | Molecule | Ki
1 | O=c1c2c([nH]c3ccccc13)C(c1ccc3c(c1)CCO3)N(c1ncc(-c3cccc[n+]3[O-])cn1)C2 (stereo not drawn) [Compound 125, 3-(2,3-Dihydro-benzofuran-5-yl)-2-[5-(1-oxy-pyridin-2-yl)-pyrimidin-2-yl]-1,2,3,4-tetrahydro-pyrrolo[3,4-b]quinolin-9-one] | 0.144 nM
2 | Oc1c2c(nc3ccccc13)C(c1ccc3c(c1)OCO3)N(c1ccc(-n3ccnc3)cc1)C2 (racemic) [Compound 133, 3-Benzo[1,3]dioxol-5-yl-2-(4-imidazol-1-yl-phenyl)-1,2,3,4-tetrahydro-pyrrolo[3,4-b]quinolin-9-one] | 1.75 nM
3 | Cc1ncc(-c2cnc(N3Cc4c([nH]c5ccccc5c4=O)C3c3ccc4c(c3)CCO4)nc2)n1C (stereo not drawn) [Compound 128, 3-(2,3-Dihydro-benzofuran-5-yl)-2-[5-(2,3-dimethyl-3H-imidazol-4-yl)-pyrimidin-2-yl]-1,2,3,4-tetrahydro-pyrrolo[3,4-β]quinolin-9-one] | 0.3 nM
4 | Oc1c2c(nc3ccccc13)C(c1ccc3occc3c1)N(c1ncc(-c3ccccn3)cn1)C2 (racemic) [Compound 126, 3-Benzofuran-5-yl-2-(5-pyridin-2-yl-pyrimidin-2-yl)-1,2,3,4-tetrahydro-pyrrolo[3,4-b]quinolin-9-one] | 0.138 nM

Target: PDEV (Oryctolagus cuniculus, UniProt G1SX67)
Experiment: PDE assay: inhibition of PDEV isolated from rabbit tissue
Format: biochemical
Details: PDEV inhibitory activity, rabbit tissue (footnote a)
Procedure: (§3) Briefly, rabbit or human tissues were homogenized in an ice-cold buffer solution containing 20 mM HEPES (pH 7.2), 0.25M sucrose, 1 mM EDTA, and 1 mM phenylmethylsulphonyl fluoride (PMSF). The homogenates were centrifuged at 100,000 g for 60 minutes at 4° C. The supernatant was filtered through […] filter and loaded on a Pharmacia Mono Q anion exchange column (1 ml bed volume) that was equilibrated with 20 mM HEPES, 1 mM EDTA and 0.5 mM PMSF. After washing out unbound proteins, the enzymes were eluted with a linear gradient of 100-600 mM NaCl in the same buffer (35 to 50 ml total, depending on the tissue. Enzymes from the skeletal muscle, corpus cavernosum, retina, heart and platelet were eluted with 35, 40, 45, 50, and 50 ml respectively.) The column was run at a flow rate of 1 ml/min and 1 ml fractions were collected. The fractions comprising various PDE activities were pooled separately and used in later studies.
(§4) The assays were adapted to a 96-well format. The enzyme was assayed in 5 mM MgCl2, 15 mM Tris HCl (pH 7.4), 0.5 mg/ml bovine serum albumin, 1 μM cGMP or cAMP, 0.1 μCi [^3H]-cGMP or [^3H]-cAMP, and 2-10 μl of column elution. The total volume of the assay was 100 μl. The reaction mixture was incubated at 30° C. for 30 minutes. The reaction was stopped by boiling for 1 minute and then cooled down on ice. The resulting [^3H]5′-mononucleotides were further converted to uncharged [^3H]-nucleosides by adding 25 μl 1 mg/ml snake venom (Ophiophagus hannah) and incubating at 30° C. for 10 minute. The reaction was stopped by the addition of 1 ml Bio-Rad AG1-X2 resin slurry (1:3). All the charged nucleotides were bound by the resin and only uncharged [^3H]-nucleosides remained in the supernatant after centrifuging. An aliquot of 200 μl was taken and counted by liquid scintillation. PDE activity was expressed as pmol cyclic nucleotide hydrolyzed/min/ml of enzyme preparation.
(§5) Inhibitor studies were carried out in assay buffer with a final concentration of 10% DMSO.
as §1, §2

Row | Molecule | IC50
5 | COc1ccc(-c2cnc(N3Cc4c([nH]c5ccccc5c4=O)[C@@H]3c3ccc4c(c3)OCO4)nc2)cc1OC [Compound 35, (S)-1,2,3,4-Tetrahydro-2-[5-(3,4-dimethoxyphenyl)-pyrimidin-2-yl]-3-(3,4-methylenedioxyphenyl)-9H-pyrrolo-[3,4-b]quinolin-9-one] | 1.42 nM
6 | (E)-4-[3-Oxo-3-[1,2,3,4-tetrahydro-3-(3,4-methylenedioxyphenyl)-9-methoxy-9H-pyrrolo-[3,4-b]quinolin-2-yl]-1-propenyl]benzoic acid, methyl ester [Compound 64] | 113 nM
7 | O=C(c1ccc(Br)o1)N1Cc2c(nc3ccccc3c2O)C1c1ccc2c(c1)OCO2 (racemic) [Compound 30, 1,2,3,4-Tetrahydro-3-(3,4-methylenedioxyphenyl)-2-(5-(2-bromo)-furoyl)-9H-pyrrolo[3,4-b]quinolin-9-one] | 5.2 nM
8 | O=C(c1cc2ccc(OCCN3CCOCC3)cc2o1)N1Cc2c([nH]c3ccccc3c2=O)C1c1ccc2c(c1)OCO2 (racemic) [Compound 49, hydrochloride salt] | 1.13 nM
9 | COC(=O)c1ccc(/C=C/C(=O)N2Cc3c(n(C)c4ccccc4c3=O)C2c2ccc3c(c2)OCO3)cc1 (racemic) [Compound 63, (E)-4-[3-Oxo-3-[1,2,3,4-tetrahydro-3-(3,4-methylenedioxyphenyl)-4-methyl-9H-pyrrolo-[3,4-b]quinolin-9-one-2-yl]-1-propenyl]benzoic acid, methyl ester] | 511 nM
10 | O=c1c2c([nH]c3ccccc13)[C@@H](c1ccc3c(c1)OCO3)N(c1ccc(-c3cccc(C(F)(F)F)c3)o1)C2 [Compound 50, (R)-1,2,3,4-Tetrahydro-3-(3,4-methylenedioxyphenyl)-2-[5-(3-trifluoromethylphenyl)furo-2-yl]-9H-pyrrolo-[3,4-b]quinolin-9-one] | 0.61 nM
11 | CC(C)(C)OC(=O)N1Cc2c([nH]c3ccccc3c2=O)C1c1ccc2c(c1)OCO2 (racemic) [Compound 3, 1,2,3,4-Tetrahydro-2-(tert-butoxycarbonyl)-3-(3,4-methylenedioxyphenyl)-9H-pyrrolo-[3,4-b]quinolin-9-one] | 340 nM
12 | O=C(OCc1ccccc1)N1Cc2c(nc3ccccc3c2O)C1c1ccc2c(c1)OCO2 (racemic) [Compound 27, 1,2,3,4-Tetrahydro-2-(benzyloxycarbonyl)-3-(3,4-methylenedioxyphenyl)-9H-pyrrolo-[3,4-b]quinolin-9-one] | 3.4 nM
13 | O=C(OCc1ccncc1)N1Cc2c([nH]c3ccccc3c2=O)C1c1ccc2c(c1)CCO2 (racemic) [Compound 53, 1,2,3,4-Tetrahydro-2-[(4-pyridinyl)methyloxycarbonyl]-3-(2,3-dihydrobenzofuran-5-yl)-9H-pyrrolo-[3,4-b]quinolin-9-one] | 5.34 nM

Target: T1, PDEV
Experiment: PDE assay: inhibition of PDEV isolated from human tissue
Format: biochemical
Details: PDEV inhibitory activity
Procedure: as §3, §4, §5, §1, §2

Row | Molecule | IC50
14 | O=C(c1cc2ccc(O)cc2o1)N1Cc2c(nc3ccccc3c2O)C1c1ccc2c(c1)OCO2 (racemic) [Compound 9, 1,2,3,4-Tetrahydro-3-(3,4-methylenedioxyphenyl)-2-(6-hydroxy-2-benzo-furoyl)-9H-pyrrolo[3,4-b]quinolin-9-one] | 0.46 nM
15 | Oc1c2c(nc3ccccc13)C(c1ccc3c(c1)CCO3)N(c1ncccn1)C2 (racemic) [Compound 123, 3-(2,3-Dihydro-benzofuran-5-yl)-2-pyrimidin-2-yl-1,2,3,4-tetrahydro-pyrrolo[3,4-b]quinolin-9-one] | 12.8 nM
16 | CN1CCN(C(=O)c2ccc(-c3ccc(C(=O)N4Cc5c([nH]c6ccccc6c5=O)C4c4ccc5c(c4)OCO5)o3)cc2)CC1 (stereo not drawn) [Compound 44, 1,2,3,4-Tetrahydro-3-(3,4-methylenedioxyphenyl)-2-(5-(4-(1-(4-methyl)piperazinylcarbonyl)-phenyl)-furoyl)-9H-pyrrolo[3,4-b]quinolin-9-one] | 1.58 nM
17 | Oc1c2c(nc3ccccc13)C(c1ccc3c(c1)OCO3)N(c1ncccn1)C2 (racemic) [Compound 11, 1,2,3,4-Tetrahydro-2-(pyrimidin-2-yl)-3-(3,4-methylenedioxyphenyl)-9H-pyrrolo-[3,4-b]quinolin-9-one] | 3.73 nM
18 | O=Cc1ccc(-c2ccc(C(=O)N3Cc4c([nH]c5ccccc5c4=O)C3c3ccc4c(c3)OCO4)o2)cc1 (stereo not drawn) [Compound 23, 1,2,3,4-Tetrahydro-3-(3,4-methylenedioxyphenyl)-2-[5-(4-formylphenyl)-furoyl]-9H-pyrrolo[3,4-b]-quinolin-9-one] | 1.76 nM
19 | COC(=O)c1ccc(/C=C/C(=O)N2Cc3c([nH]c4ccccc4c3=O)C2c2ccc3c(c2)OCO3)cc1 (racemic) [Compound 6, (E)-4-[3-Oxo-3-[1,2,3,4-tetrahydro-3-(3,4-methylenedioxyphenyl)-9H-pyrrolo-[3,4-b]quinolin-9-one-2-yl]-1-propenyl]benzoic Acid Methyl Ester] | 0.507 nM
20 | Oc1c2c(nc3ccccc13)[C@@H](c1ccc3c(c1)CCO3)N(c1ncc(-c3ccccn3)cn1)C2 [Compound 76] | 0.23 nM
21 | O=C(c1ccc(-c2ccco2)o1)N1Cc2c(nc3ccccc3c2O)C1c1ccc2c(c1)OCO2 (racemic) [Compound 117] | 4.75 nM
22 | COc1ccc(-c2cnc(N3Cc4c([nH]c5ccccc5c4=O)C3c3ccc4c(c3)OCO4)nc2)cc1OC (racemic) [Compound 1, 1,2,3,4-Tetrahydro-2-[5-(3,4-dimethoxyphenyl)-pyrimidin-2-yl]-3-(3,4-methylenedioxyphenyl)-9H-pyrrolo-[3,4-b]quinolin-9-one] | 0.165 nM
23 | COc1ccc(-c2ccc(C(=O)N3Cc4c([nH]c5ccccc5c4=O)C3c3ccc4c(c3)OCO4)o2)cc1 (stereo not drawn) [Compound 21, 1,2,3,4-Tetrahydro-3-(3,4-methylenedioxyphenyl)-2-[5-(4-methoxyphenyl)-furoyl]-9H-pyrrolo[3,4-b]-quinolin-9-one] | 1.93 nM
24 | CN1CCN(C(=O)c2ccc(-c3ccc(C(=O)N4Cc5c([nH]c6ccccc6c5=O)[C@H]4c4ccc5c(c4)OCO5)o3)cc2)CC1 [Compound 69, (R)-1,2,3,4-Tetrahydro-3-(3,4-methylenedioxyphenyl)-2-(5-(4-(1-(4-methyl)-piperazinylcarbonyl)-phenyl)-furoyl)-9H-pyrrolo[3,4-b]quinolin-9-one] | 0.32 nM
